Experimental data taken from patent US20260053932A1, “COMPOUNDS AND METHODS FOR THE TARGETED DEGRADATION OF ANDROGEN RECEPTOR AND ASSOCIATED METHODS OF USE” (Arvinas Operations, Inc., priority 2020, published 2026).

system: androgen receptor (AR) in LNCaP and/or VCaP cells; assay: Androgen Receptor ELISA assay (AR degradation); format: cell-based; settings: LNCaP and/or VCaP cells; 5 hours incubation; media with R1881; read-out: DC50 Code* (degradation of AR ELISA)
In short: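 VCaP cells grown ≥3 days, then treated 5 h with compound in media containing 1 nM R1881 (10× stock). Cells lysed and AR quantified by sandwich ELISA (mouse AR detection Ab, HRP anti-mouse, TMB). DC50 and Dmax derived from AR degradation.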

DC50 [nM] | Compound
< 1 | COc1cc(O[C@H]2CC[C@H](NC(=O)c3cnc(N4CCC(CN(C(C)C)[C@H]5CC[C@H](Oc6ccc7c(c6)CN(C6CCC(=O)NC6=O)C7=O)CC5)CC4)cn3)CC2)ccc1C#N (some centres unmarked) [Compound 19, N-((1r,4r)-4-(4-cyano-3-methoxyphenoxy)cyclohexyl)-5-(4-((((1r,4r)-4-((2-(2,6-dioxopiperidin-3-yl)-1-oxoisoindolin-5-yl)oxy)cyclohexyl) (isopropyl)amino)methyl)piperidin-1-yl)pyrazine-2-carboxamide]
< 1 | COCC(C)N(CC1CCN(c2cnc(C(=O)N[C@H]3CC[C@H](Oc4ccc(C#N)c(Cl)c4)CC3)cn2)CC1)[C@H]1C[C@H](Oc2ccc3c(c2)C(=O)N(C2CCC(=O)NC2=O)C3=O)C1 (some centres unmarked) [Compound 55, N-((1r,4r)-4-(3-chloro-4-cyanophenoxy)cyclohexyl)-5-(4-((((1r,3r)-3-((2-(2,6-dioxopiperidin-3-yl)-1,3-dioxoisoindolin-5-yl)oxy)cyclobutyl)(1-methoxypropan-2-yl)amino)methyl)piperidin-1-yl)pyrazine-2-carboxamide]

same assay, conditions: degradation of AR ELISA in LNCaP and/or VCaP cells; Table 2C; read-out: DC50 Code*

Compound | DC50 [nM]
Cc1cc(O[C@H]2C(C)(C)[C@H](NC(=O)c3ccc(N4CCC(CN5CCC[C@@H]5COc5ccc6c(c5)C(=O)N(C5CCC(=O)NC5=O)C6=O)CC4)cc3)C2(C)C)cc(C)c1C#N (stereo partly drawn) [compound 193, N-((1r,3R)-3-(4-cyano-3,5-dimethylphenoxy)-2,2,4,4-tetramethylcyclobutyl)-4-(4-(((2R)-2-(((2-(2,6-dioxopiperidin-3-yl)-1,3-dioxoisoindolin-5-yl)oxy)methyl)pyrrolidin-1-yl)methyl)piperidin-1-yl)benzamide] | < 1
Cc1cc(O[C@H]2C(C)(C)[C@H](NC(=O)c3ccc(N4CCO[C@H](CN5CCN(c6ccc7c(c6)C(=O)N(C6CCC(=O)NC6=O)C7=O)CC5)C4)cc3)C2(C)C)cc(C)c1C#N (stereo partly drawn) [compound 167, N-((1r,3R)-3-(4-cyano-3,5-dimethylphenoxy)-2,2,4,4-tetramethylcyclobutyl)-4-((2R)-2-((4-(2-(2,6-dioxopiperidin-3-yl)-1,3-dioxoisoindolin-5-yl)piperazin-1-yl)methyl)morpholino) benzamide] | < 1
COCCN(CC1CCN(c2ccc(C(=O)N[C@H]3C(C)(C)[C@H](Oc4ccc(C#N)c(OC)c4)C3(C)C)nn2)CC1)[C@H]1C[C@H](Oc2cc(OC)c3c(c2)C(=O)N(C2CCC(=O)NC2=O)C3=O)C1 (some centres unmarked) [compound 100, N-((1r,3r)-3-(4-cyano-3-methoxyphenoxy)-2,2,4,4-tetramethylcyclobutyl)-6-(4-((((1r,3r)-3-((2-(2,6-dioxopiperidin-3-yl)-7-methoxy-1,3-dioxoisoindolin-5-yl)oxy)cyclobutyl)(2-methoxyethyl)amino)methyl)piperidin-1-yl)pyridazine-3-carboxamide] | < 1
[2H]C([2H])([2H])OCCN(CC1CCN(c2ccc(C(=O)N[C@H]3C(C)(C)[C@H](Oc4cc(C)c(C#N)c(C)c4)C3(C)C)cc2)CC1)[C@H]1C[C@H](Oc2cc(OC([2H])([2H])[2H])c3c(c2)C(=O)N(C2CCC(=O)NC2=O)C3=O)C1 (mixture of isomers) [compound 181, rac-N-((1r,3r)-3-(4-cyano-3,5-dimethylphenoxy)-2,2,4,4-tetramethylcyclobutyl)-4-(4-((((1r,3r)-3-((2-(2,6-dioxopiperidin-3-yl)-7-(methoxy-d3)-1,3-dioxoisoindolin-5-yl)oxy)cyclobutyl)(2-(methoxy-d3)ethyl)amino)methyl)piperidin-1-yl)benzamide] | < 1
COc1cc2c(cc1O[C@H]1C[C@H](N(CC3CCN(c4cnc(C(=O)N[C@H]5C(C)(C)[C@H](Oc6cc(C)c(C#N)c(C)c6)C5(C)C)cn4)CC3)C(C)C)C1)C(=O)N(C1CCC(=O)NC1=O)C2=O (some centres unmarked) [Compound 199, N-((1r,3r)-3-(4-cyano-3,5-dimethylphenoxy)-2,2,4,4-tetramethylcyclobutyl)-5-(4-((((1r,3r)-3-((2-(2,6-dioxopiperidin-3-yl)-6-methoxy-1,3-dioxoisoindolin-5-yl)oxy)cyclobutyl)(isopropyl)amino)methyl)piperidin-1-yl)pyrazine-2-carboxamide] | < 1
Cc1cc(O[C@H]2C(C)(C)[C@H](NC(=O)c3cnc(N4CC(CCN5CCC(Oc6ccc7c(c6)C(=O)N(C6CCC(=O)NC6=O)C7=O)CC5)C4)cn3)C2(C)C)cc(C)c1C#N (some centres unmarked) [compound 143, N-((1r,3r)-3-(4-cyano-3,5-dimethylphenoxy)-2,2,4,4-tetramethylcyclobutyl)-5-(3-(2-(4-((2-(2,6-dioxopiperidin-3-yl)-1,3-dioxoisoindolin-5-yl)oxy)piperidin-1-yl)ethyl)azetidin-1-yl)pyrazine-2-carboxamide] | > 100
Cc1cc(O[C@H]2C(C)(C)[C@H](NC(=O)c3cnc(N4CCC(CN(C(C)C)[C@H]5C[C@H](Oc6ccc7c(c6)C(=O)N(C6CCC(=O)NC6=O)C7=O)C5)CC4)nc3C)C2(C)C)cc(C)c1C#N (mixture of isomers) [compound 146, rac-N-((1r,3r)-3-(4-cyano-3,5-dimethylphenoxy)-2,2,4,4-tetramethylcyclobutyl)-2-(4-((((1r,3r)-3-((2-(2,6-dioxopiperidin-3-yl)-1,3-dioxoisoindolin-5-yl)oxy)cyclobutyl) (isopropyl)amino)methyl)piperidin-1-yl)-4-methylpyrimidine-5-carboxamide] | < 1
COc1cc(O[C@H]2C(C)(C)[C@H](NC(=O)c3cnc(N4CC5(CC(CN(C(C)C)[C@H]6C[C@H](Oc7ccc8c(c7)C(=O)N(C7CCC(=O)NC7=O)C8=O)C6)C5)C4)cn3)C2(C)C)ccc1C#N (some centres unmarked) [compound 122, N-((1r,3r)-3-(4-cyano-3-methoxyphenoxy)-2,2,4,4-tetramethylcyclobutyl)-5-(6-((((1r,3r)-3-((2-(2,6-dioxopiperidin-3-yl)-1,3-dioxoisoindolin-5-yl)oxy)cyclobutyl) (isopropyl)amino)methyl)-2-azaspiro[3.3]heptan-2-yl)pyrazine-2-carboxamide] | < 1
CCN(CC1CCN(c2ccc(C(=O)N[C@H]3C(C)(C)[C@H](Oc4cc(C)c(C#N)c(C)c4)C3(C)C)cc2)CC1)[C@H]1C[C@H](Oc2cc(OC)c3c(c2)C(=O)N(C2CCC(=O)NC2=O)C3=O)C1 (mixture of isomers) [compound 169, rac-N-((1r,3r)-3-(4-cyano-3,5-dimethylphenoxy)-2,2,4,4-tetramethylcyclobutyl)-4-(4-((((1r,3r)-3-((2-(2,6-dioxopiperidin-3-yl)-7-methoxy-1,3-dioxoisoindolin-5-yl)oxy)cyclobutyl) (ethyl)amino)methyl)piperidin-1-yl) benzamide] | < 1
Cc1cc(O[C@H]2C(C)(C)[C@H](NC(=O)c3ccc(N4CCC(CN(C(C)C)[C@H]5C[C@H](Oc6ccc7c(c6)C(=O)N(C6CCC(=O)NC6=O)C7=O)C5)CC4)cc3)C2(C)C)cc(C)c1C#N (some centres unmarked) [compound 104, N-((1r,3r)-3-(4-cyano-3,5-dimethylphenoxy)-2,2,4,4-tetramethylcyclobutyl)-4-(4-((((1r,3r)-3-((2-(2,6-dioxopiperidin-3-yl)-1,3-dioxoisoindolin-5-yl)oxy)cyclobutyl)(isopropyl)amino)methyl)piperidin-1-yl)benzamide] | < 1

Other lines, results leading:

DC50 [nM] | Compound
1 to 10 | CC1(C)[C@H](NC(=O)c2cnc(N3CCC(CN(CCN4CCOCC4)[C@H]4C[C@H](Oc5ccc6c(c5)C(=O)N(C5CCC(=O)NC5=O)C6=O)C4)CC3)cn2)C(C)(C)[C@H]1Oc1ccc(C#N)c(Cl)c1 (some centres unmarked) [compound 237, N-((1r,3r)-3-(3-chloro-4-cyanophenoxy)-2,2,4,4-tetramethylcyclobutyl)-5-(4-((((1r,3r)-3-((2-(2,6-dioxopiperidin-3-yl)-1,3-dioxoisoindolin-5-yl)oxy)cyclobutyl)(2-morpholinoethyl)amino)methyl)piperidin-1-yl)pyrazine-2-carboxamide]
< 1 | COc1cc(O[C@H]2C(C)(C)[C@H](NC(=O)c3cnc(N4CCC(CN(CCN5CCOCC5)[C@H]5C[C@H](Oc6ccc7c(c6)C(=O)N(C6CCC(=O)NC6=O)C7=O)C5)CC4)cn3)C2(C)C)ccc1C#N (some centres unmarked) [compound 209, N-((1r,3r)-3-(4-cyano-3-methoxyphenoxy)-2,2,4,4-tetramethylcyclobutyl)-5-(4-((((1r,3r)-3-((2-(2,6-dioxopiperidin-3-yl)-1,3-dioxoisoindolin-5-yl)oxy)cyclobutyl)(2-morpholinoethyl)amino)methyl)piperidin-1-yl)pyrazine-2-carboxamide]
< 1 | COc1cc(O[C@H]2C[C@H](N3CCOC4(CCN(c5ccc(C(=O)N[C@H]6C(C)(C)[C@H](Oc7cc(C)c(C#N)c(C)c7)C6(C)C)cc5)CC4)C3)C2)cc2c1C(=O)N(C1CCC(=O)NC1=O)C2=O (mixture of isomers) [compound 220, rac-N-((1r,3r)-3-(4-cyano-3,5-dimethylphenoxy)-2,2,4,4-tetramethylcyclobutyl)-4-(4-((1r,3r)-3-((2-(2,6-dioxopiperidin-3-yl)-7-methoxy-1,3-dioxoisoindolin-5-yl)oxy)cyclobutyl)-1-oxa-4,9-diazaspiro[5.5]undecan-9-yl)benzamide]
< 1 | CCN(CC1CCN(c2cnc(C(=O)N[C@H]3C(C)(C)[C@H](Oc4ccc(C#N)c(OC)c4)C3(C)C)cn2)CC1)[C@H]1C[C@H](Oc2ccc3c(c2)C(=O)N(C2CCC(=O)NC2=O)C3=O)C1 (some centres unmarked) [compound 194, N-((1r,3r)-3-(4-cyano-3-methoxyphenoxy)-2,2,4,4-tetramethylcyclobutyl)-5-(4-((((1r,3r)-3-((2-(2,6-dioxopiperidin-3-yl)-1,3-dioxoisoindolin-5-yl)oxy)cyclobutyl)(ethyl)amino)methyl)piperidin-1-yl)pyrazine-2-carboxamide]
< 1 | COCCN(CC1CCN(c2cnc(C(=O)N[C@H]3C(C)(C)[C@H](Oc4cc(C)c(C#N)c(C)c4)C3(C)C)cn2)CC1)[C@H]1C[C@H](Oc2ccc3c(c2)C(=O)N(C2CCC(=O)NC2=O)C3)C1 (mixture of isomers) [compound 223, rac-N-((1r,3r)-3-(4-cyano-3,5-dimethylphenoxy)-2,2,4,4-tetramethylcyclobutyl)-5-(4-((((1r,3r)-3-((2-(2,6-dioxopiperidin-3-yl)-3-oxoisoindolin-5-yl)oxy)cyclobutyl)(2-methoxyethyl)amino)methyl)piperidin-1-yl)pyrazine-2-carboxamide]
